Results: article PMC7691360, “Synthesis of novel cytotoxic tetracyclic acridone derivatives and study of their molecular docking, ADMET, QSAR, bioactivity and protein binding properties” (Scientific Reports, 2020)

Assays:
[1] = system: HEK293T cells; test: MTT cytotoxicity assay against HEK293T; type: cell-based; details: Homo sapiens, HEK-293T, 48 h, read-out: Percentage of inhibition against treated concentrations
Procedure: (§1) Anticancer activity of 7a–s has been evaluated by MTT [3-(4,5-dimethylthiazol-2-yl)-2,5-diphenyl-tetrazolium bromide] assay and the cell lines HT29 (ATCC: HTB-38), MDA-MB-231 (ATCC: HTB-26), HEK293T (ATCC: CRL-3216) were procured from American type cell culture collection (ATCC), Manassas, USA and other chemicals were procured from Sigma-Aldrich. Then absorbance (used as a measure of cell proliferation) was measured at 570 nm with a kinetic micro-plate reader (BioTek, Winooski, Vermont).
(§2) Having synthesized a series of the title compounds, all of them were screened for their in vitro anticancer profiles against a panel of human colorectal adenocarcinoma (HT29), human breast adenocarcinoma (MDA-MB-231) and mutated Human embryonic kidney 293 (HEK293T) cancer cell lines by using MTT colourmetric assay as per Johan van Meerloo protocol. The three cell lines were cultured in […] medium and supplemented with 10% FBS followed by 100 units/mL penicillin/ streptomycin and were cultured at 37 °C in 5% CO2. Cell proliferation of the growing cells was measured in terms of logarithmic standards. Analytically, all the cultured cells were plated onto 96 well plates at a starting density of 10^5 cells. Then all the cells were treated with title compounds 7a–s for a period of 48 h with different concentrations. After this incubation cell proliferation inhibition was determined by MTT assay and all the experiments were conducted in triplicates and readings were presented as mean ± SD and provided in Tables 1, 2 and 3.

[2] = system: MDA-MB-231 cells; test: MTT cytotoxicity assay against MDA-MB-231; type: cell-based; details: Homo sapiens, 48 h, read-out: Percentage of inhibition against treated concentrations; for activity at 1 µM: MDAMB231, 1 µM; for activity at 5 µM: MDAMB231, 5 µM; for activity at 10 µM: MDAMB231, 10 µM; for activity at 25 µM: MDAMB231, 25 µM; for activity at 50 µM: MDAMB231, 50 µM
Procedure: as §1, §2

[3] = system: HT29 cells; test: MTT cytotoxicity assay against HT29; type: cell-based; details: Homo sapiens, 48 h, read-out: Percentage of inhibition against treated concentrations; for activity at 1 µM: HT-29, HT29, 1 µM; for activity at 5 µM: HT-29, HT29, 5 µM; for activity at 10 µM: HT-29, HT29, 10 µM; for activity at 25 µM: HT-29, HT29, 25 µM; for activity at 50 µM: HT-29, HT29, 50 µM
Procedure: as §1, §2

Row | Compound | melting point [°C] | activity at 1 µM [1] [%] | activity at 5 µM [1] [%] | activity at 10 µM [1] [%] | activity at 25 µM [1] [%] | activity at 50 µM [1] [%] | activity at 1 µM [2] [%] | activity at 5 µM [2] [%] | activity at 10 µM [2] [%] | activity at 25 µM [2] [%] | activity at 50 µM [2] [%] | activity at 1 µM [3] [%] | activity at 5 µM [3] [%] | activity at 10 µM [3] [%] | activity at 25 µM [3] [%] | activity at 50 µM [3] [%]
1 | Cc1ccc(C(=O)N2CCn3c4ccccc4c(=O)c4cccc2c43)nc1 [Compound 7f, 3-(5-Methylpicolinoyl)-2,3-dihydropyrazino[3,2,1-de]acridin-7(1H)-one] | 252 to 254 | 92.96 ± 0.52 | 90.92 ± 0.52 | 88.07 ± 0.68 | 80.53 ± 0.41 | 47.46 ± 0.38 | 83.22 ± 0.21 | 54.18 ± 0.35 | 43.7 ± 0.54 | 23.3 ± 0.26 | 13.8 ± 0.73 | 86.92 ± 0.24 | 61.4 ± 0.68 | 49.24 ± 0.05 | 29.09 ± 0.18 | 17.1 ± 0.65
2 | Cc1cccnc1C(=O)N1CCn2c3ccccc3c(=O)c3cccc1c32 [Compound 7g, 3-(3-Methylpicolinoyl)-2,3-dihydropyrazino[3,2,1-de]acridin-7(1H)-one] | 221 to 223 | 95.9 ± 0.54 | 92.62 ± 0.31 | 88.84 ± 0.07 | 81.24 ± 0.32 | 48.2 ± 0.86 | 81.56 ± 0.48 | 52.3 ± 0.86 | 41.7 ± 0.74 | 14.6 ± 0.34 | 10.6 ± 0.28 | 79.09 ± 0.34 | 58.9 ± 0.93 | 45.1 ± 0.54 | 25.5 ± 0.44 | 10 ± 0.91
3 | O=c1c2ccccc2n2c3c(cccc13)N(c1nccs1)CC2 [Compound 7j, 3-(Thiazol-2-yl)-2,3-dihydropyrazino[3,2,1-de]acridin-7(1H)-one] | 239 to 241 | 96.71 ± 0.63 | 94.47 ± 0.83 | 91.28 ± 0.48 | 84.17 ± 0.37 | 49.6 ± 0.38 | 87.9 ± 0.95 | 58.4 ± 0.88 | 48.2 ± 0.88 | 39.53 ± 0.23 | 23.3 ± 0.98 | 89.55 ± 0.11 | 64.84 ± 0.45 | 51.5 ± 0.94 | 31.05 ± 0.19 | 17.4 ± 0.87
4 | O=C(c1ccc(O)cc1)N1CCn2c3ccccc3c(=O)c3cccc1c32 [Compound 7k, 3-(4-hydroxybenzoyl)-2,3-dihydro-1H,7H-pyrazino[3,2,1-de]acridin-7-one] | 265 to 267 | 99.55 ± 0.46 | 97.77 ± 0.09 | 96.79 ± 0.17 | 95.46 ± 0.43 | 56.26 ± 0.12 | 97.31 ± 0.74 | 88.16 ± 0.43 | 80.54 ± 0.54 | 70.48 ± 0.17 | 41.5 ± 0.91 | 96.6 ± 0.99 | 81.84 ± 0.11 | 74.68 ± 0.64 | 66.23 ± 0.18 | 28 ± 0.96
5 | O=C(c1ccccc1)N1CCn2c3ccccc3c(=O)c3cccc1c32 [Compound 7l, 3-Benzoyl-2,3-dihydro-1H,7H-pyrazino[3,2,1-de]acridin-7-one] | 253 to 255 | 96.44 ± 0.31 | 94.13 ± 0.23 | 89.65 ± 0.12 | 82.83 ± 0.54 | 48.8 ± 0.67 | 95.13 ± 0.85 | 82.38 ± 0.27 | 75.3 ± 0.81 | 65.86 ± 0.47 | 38.8 ± 0.88 | 97.17 ± 0.22 | 83.2 ± 0.99 | 76.71 ± 0.06 | 68.88 ± 0.47 | 30.6 ± 0.87
6 | O=C(c1ccc(C(F)(F)F)cc1)N1CCn2c3ccccc3c(=O)c3cccc1c32 [Compound 7o, 3-(4-(Trifluoromethyl)benzoyl)-2,3-dihydro-1H,7H-pyrazino[3,2,1-de]acridin-7-one] | 240 to 242 | 95.33 ± 0.63 | 91.17 ± 0.26 | 88.65 ± 0.11 | 80.68 ± 0.76 | 48.2 ± 0.79 | 94.97 ± 0.73 | 76.63 ± 0.13 | 70 ± 0.93 | 61.26 ± 0.29 | 36.1 ± 0.64 | 93.92 ± 0.39 | 77.8 ± 0.91 | 69.54 ± 0.24 | 58.23 ± 0.26 | 24.3 ± 0.76
7 | O=C(c1ccccc1F)N1CCn2c3ccccc3c(=O)c3cccc1c32 [Compound 7p, 3-(2-Fluorobenzoyl)-2,3-dihydro-1H,7H-pyrazino[3,2,1-de]acridin-7-one] | 225 to 227 | 96.23 ± 0.74 | 93.99 ± 0.91 | 89.17 ± 0.81 | 82.34 ± 0.34 | 48.53 ± 0.12 | 89.82 ± 0.36 | 68.3 ± 0.79 | 61.77 ± 0.42 | 51.43 ± 0.36 | 30.3 ± 0.84 | 90.43 ± 0.77 | 74.71 ± 0.22 | 65.8 ± 0.76 | 54.13 ± 0.37 | 21 ± 0.22
8 | O=C(c1ccc(F)cc1)N1CCn2c3ccccc3c(=O)c3cccc1c32 [Compound 7r, 3-(4-Fluorobenzoyl)-2,3-dihydro-1H,7H-pyrazino[3,2,1-de]acridin-7-one] | 236 to 238 | 97.98 ± 0.88 | 95.25 ± 0.68 | 92.81 ± 0.21 | 88.11 ± 0.25 | 51.93 ± 0.23 | 96.33 ± 0.48 | 86.31 ± 0.21 | 78.85 ± 0.32 | 69 ± 0.05 | 40.7 ± 0.86 | 91.9 ± 0.93 | 75.12 ± 0.73 | 66.15 ± 0.13 | 55.26 ± 0.23 | 21.6 ± 0.24
